Data: patent US5519025A, “4-indolylpiperazinyl derivatives” (American Home Products Corporation, priority 1995, dated 1996)

Molecular target: T1, 5-HT1A serotonin receptors (Rattus norvegicus, UniProt P19327)
T1 construct: rat hippocampal membrane homogenate; from tissue; host or cells: rat hippocampus, membrane homogenate
T1 sequence (P19327 1-422): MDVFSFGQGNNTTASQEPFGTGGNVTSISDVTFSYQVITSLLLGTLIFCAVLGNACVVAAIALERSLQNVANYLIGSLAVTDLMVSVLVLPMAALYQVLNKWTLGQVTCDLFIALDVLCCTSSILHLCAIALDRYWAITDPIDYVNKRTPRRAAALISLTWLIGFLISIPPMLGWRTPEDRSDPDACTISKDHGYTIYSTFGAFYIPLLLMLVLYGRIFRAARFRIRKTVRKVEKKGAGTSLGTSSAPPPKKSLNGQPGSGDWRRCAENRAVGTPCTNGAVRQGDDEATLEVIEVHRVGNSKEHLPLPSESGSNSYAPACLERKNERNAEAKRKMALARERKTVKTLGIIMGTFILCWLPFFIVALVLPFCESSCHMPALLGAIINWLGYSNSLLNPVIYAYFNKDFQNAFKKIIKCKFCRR
Test: displacement of [3H] 8-OHDPAT from 5-HT1A serotonin receptors in rat hippocampal membrane homogenate
Assay type: binding
Conditions: [3H] 8-OHDPAT displacement
Excerpt: High affinity for the serotonin 5-HT1A receptor was established by testing the claimed compound's ability to displace [^3 H] 8-OHDPAT (dipropylaminotetralin) from the 5-HT1A serotonin receptors in rat hippocampal membrane homogenate following the procedure of B. S. Alexander and M. D. Wood, J. Pharm. Pharmacol. 1988, 40, 888-891. […] Based upon this receptor binding data, the compounds of this invention are characterized as anxiolytic and/or antidepressant agents useful in the treatment of depression and in alleviating anxiety. As such, the compounds may be administered neat or with a pharmaceutical carrier to a patient in need thereof. The pharmaceutical carrier may be solid or liquid.

| Compound | IC50 [nM] |
| --- | --- |
| CC1(C(=O)N[C@@H](CN2CCN(c3cccc4[nH]ccc34)CC2)c2ccccc2)CCCCC1 [Example 1] | 4.33 |
| CC1(C(=O)N[C@H](CN2CCN(c3cccc4[nH]ccc34)CC2)c2ccccc2)CCCCC1 [Example 2] | 35.5 |
